Measured values: patent publication US11267800B2, “Cyclohexyl acid triazole azines as LPA antagonists” (BRISTOL-MYERS SQUIBB COMPANY, priority 2017, dated 2022)

Target: T1, human LPA1 (Homo sapiens, UniProt Q92633)
T1 construct: expressed in transfected cells; host or cells: Chinese hamster ovary (CHO) cells
Experiment: LPA1 functional antagonist assay (calcium flux)
Assay type: cell-based
Conditions: CHO cells overexpressing human LPA1; inhibition of calcium flux induced by 10 nM LPA; read-out: hLPA1 IC50
In short: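 IC50 values come from 4-parameter logistic fits and mark 50% block of the calcium flux evoked by 10 nM LPA. Human LPA1-overexpressing CHO cells were calcium-dye loaded at 37 °C, then given test compound (0.08 nM–5 μM, 0.5% DMSO, HEPES-buffered HBSS with 0.1% fatty-acid-free BSA) for 20 min at room temperature before agonist.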

T1 sequence (Q92633 whole entry): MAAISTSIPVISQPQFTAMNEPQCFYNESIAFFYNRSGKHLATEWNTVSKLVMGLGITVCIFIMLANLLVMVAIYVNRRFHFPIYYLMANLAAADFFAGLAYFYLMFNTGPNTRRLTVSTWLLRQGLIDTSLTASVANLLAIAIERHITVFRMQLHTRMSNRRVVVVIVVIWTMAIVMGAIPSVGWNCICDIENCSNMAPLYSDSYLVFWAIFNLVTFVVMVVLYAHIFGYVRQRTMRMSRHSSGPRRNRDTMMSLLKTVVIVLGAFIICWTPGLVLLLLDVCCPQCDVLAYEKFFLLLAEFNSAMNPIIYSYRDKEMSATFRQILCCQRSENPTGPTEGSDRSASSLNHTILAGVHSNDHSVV

Compound	IC50 [nM]
Cc1nc(-c2nnn(C)c2COc2cc(N3CCCC3)ncn2)ccc1O[C@H]1CCC[C@H](C(=O)O)C1 [Example 298]	121
CCc1cncc(OCc2c(-c3ccc(O[C@H]4CCC[C@H](C(=O)O)C4)c(C)n3)nnn2C)n1 [Example 300]	31
Cc1nc(-c2nnn(C)c2COc2nccc(C3CC3)n2)ccc1O[C@H]1CCC[C@H](C(=O)O)C1 [Example 302]	7.5
CCc1ncnc(OCc2c(-c3ccc(O[C@H]4CCC[C@H](C(=O)O)C4)c(C)n3)nnn2C)n1 [Example 311]	44
Cc1nc(-c2nnn(C)c2CNc2cc(C(F)(F)F)ncn2)ccc1O[C@H]1CCC[C@H](C(=O)O)C1 [Example 312]	139
Cc1nc(-c2nnn(C)c2COc2cc(-c3ccc(F)cc3)ncn2)ccc1O[C@H]1CCC[C@H](C(=O)O)C1 [Example 313]	41
Cc1nc(-c2nnn(C)c2COc2cc(-n3cnnc3C)ncn2)ccc1O[C@H]1CCC[C@H](C(=O)O)C1 [Example 314]	416
Cc1nc(-c2nnn(C)c2COc2nccc(-c3ccccn3)n2)ccc1O[C@H]1CCC[C@H](C(=O)O)C1 [Example 317]	72
CCc1cc(NCc2c(-c3ccc(O[C@H]4CCC[C@H](C(=O)O)C4)c(C)n3)nnn2C)ncn1 [Example 318]	159
Cc1nc(-c2nnn(C)c2COc2nccc(COC(C)C)n2)ccc1O[C@H]1CCC[C@H](C(=O)O)C1 [Example 320]	90
Cc1nc(-c2nnn(C)c2COc2cc(COC3CC3)ccn2)ccc1O[C@H]1CCC[C@H](C(=O)O)C1 [Example 323]	71
CCCOCc1ccnc(NCc2c(-c3ccc(O[C@H]4CCC[C@H](C(=O)O)C4)c(C)n3)nnn2C)n1 [Example 324]	42
COCc1ccnc(OCc2c(-c3ccc(O[C@H]4CCC[C@H](C(=O)O)C4)c(C)n3)nnn2C)c1 [Example 325]	25
Cc1nc(-c2nnn(C)c2CNc2cc(OCC(C)C)ncn2)ccc1O[C@H]1CCC[C@H](C(=O)O)C1 [Example 329, (1S,3S)-3-((6-(5-(((6-Isobutoxypyrimidin-4-yl)amino)methyl)-1-methyl-1H-1,2,3-triazol-4-yl)-2-methylpyridin-3-yl)oxy)cyclohexane-1-carboxylicacid]	82
Cc1nc(-c2nnn(C)c2COc2nccc(-c3ccccc3)n2)ccc1O[C@H]1CCC[C@H](C(=O)O)C1 [Example 330, (1S,3S)-3-((2-Methyl-6-(1-methyl-5-(((4-phenylpyrimidin-2-yl)oxy)methyl)-1H-1,2,3-triazol-4-yl)pyridin-3-yl)oxy)cyclohexane-1-carboxylic acid]	33
Cc1nc(-c2nnn(C)c2CNc2ncnc(C(C)C)n2)ccc1O[C@H]1CCC[C@H](C(=O)O)C1 [Example 333]	43
Cc1nc(-c2nnn(C)c2CNc2nccc(OCC3(C)CC3)n2)ccc1O[C@H]1CCC[C@H](C(=O)O)C1 [Example 335]	18
Cn1nnc(-c2ccc(O[C@H]3CCC[C@H](C(=O)O)C3)cn2)c1CNc1nccc(OCC2(C)CC2)n1 [Example 336]	28
Cc1nc(-c2nnn(C)c2COc2nccc(N3CCCC3)n2)ccc1O[C@H]1CCC[C@H](C(=O)O)C1 [Example 338]	21
Cc1nc(-c2nnn(C)c2COc2cncc(Oc3ccccc3)n2)ccc1O[C@H]1CCC[C@H](C(=O)O)C1 [Example 340]	25
Cc1nc(-c2nnn(C)c2COc2ccnc(C(F)(F)F)n2)ccc1O[C@H]1CCC[C@H](C(=O)O)C1 [Example 341]	16
Cc1nc(-c2nnn(C)c2COc2nccc(N(C)C)n2)ccc1O[C@H]1CCC[C@H](C(=O)O)C1 [Example 343]	100
CCc1ccnc(OCc2c(-c3ccc(O[C@H]4CCC[C@H](C(=O)O)C4)cn3)nnn2C)n1 [Example 347]	73
Cn1nnc(-c2ccc(O[C@H]3CCC[C@H](C(=O)O)C3)cn2)c1COc1nccc(C2CC2)n1 [Example 348]	118
Cc1nc(-c2nnn(C)c2COc2nccc(N3CCC3)n2)ccc1O[C@H]1CCC[C@H](C(=O)O)C1 [Example 349]	1220
Cc1nc(-c2nnn(C)c2COc2cc(C(F)(F)F)nc(N3CCCC3)n2)ccc1O[C@H]1CCC[C@H](C(=O)O)C1 [Example 354]	168
Cc1nc(-c2nnn(C)c2COc2cc(-c3ccccn3)ncn2)ccc1O[C@H]1CCC[C@H](C(=O)O)C1 [Example 355]	144
Cc1nc(-c2nnn(C)c2COc2cc(N3CCOCC3)ncn2)ccc1O[C@H]1CCC[C@H](C(=O)O)C1 [Example 356]	447
COCCCCOc1cc(OCc2c(-c3ccc(O[C@H]4CCC[C@H](C(=O)O)C4)c(C)n3)nnn2C)ncn1 [Example 360]	100
Cc1nc(-c2nnn(C)c2COc2cc(OCCOC(C)C)ncn2)ccc1O[C@H]1CCC[C@H](C(=O)O)C1 [Example 361]	523

Further compounds by falling IC50, results first:

IC50 [nM]	Compound
3240	COc1cncc(OCc2c(-c3ccc(O[C@H]4CCC[C@H](C(=O)O)C4)c(C)n3)nnn2C)c1 [Example 309]
2990	COc1cncc(OCc2c(-c3ccc(O[C@H]4CCC[C@H](C(=O)O)C4)c(C)n3)nnn2C)n1 [Example 307]
565	Cc1nc(-c2nnn(C)c2COc2ccnc(N3CCC3)n2)ccc1O[C@H]1CCC[C@H](C(=O)O)C1 [Example 350]
466	Cc1nc(-c2nnn(C)c2COc2cc(-n3ccnc3)ncn2)ccc1O[C@H]1CCC[C@H](C(=O)O)C1 [Example 359]
378	COc1nccc(OCc2c(-c3ccc(O[C@H]4CCC[C@H](C(=O)O)C4)c(C)n3)nnn2C)n1 [Example 344]
335	Cc1nc(-c2nnn(C)c2COc2nccc(-n3cccn3)n2)ccc1O[C@H]1CCC[C@H](C(=O)O)C1 [Example 327]
263	Cc1nc(-c2nnn(C)c2COc2nccc(-c3cnccn3)n2)ccc1O[C@H]1CCC[C@H](C(=O)O)C1 [Example 316]
211	Cc1nc(-c2nnn(C)c2CN(C)c2ncnc(C(C)C)n2)ccc1O[C@H]1CCC[C@H](C(=O)O)C1 [Example 328, (1S,3S)-3-((6-(5-(((4-Isopropyl-1,3,5-triazin-2-yl)(methyl)amino)methyl)-1-methyl-1H-1,2,3-triazol-4-yl)-2-methylpyridin-3-yl)oxy)cyclohexane-1l-carboxylic acid]
120	Cc1nc(-c2nnn(C)c2COc2cc(-n3cncn3)ncn2)ccc1O[C@H]1CCC[C@H](C(=O)O)C1 [Example 357]
118	Cc1cc(OCc2c(-c3ccc(O[C@H]4CCC[C@H](C(=O)O)C4)c(C)n3)nnn2C)ncn1 [Example 342]
112	Cc1nc(-c2nnn(C)c2CNc2nccc(OCC3(F)CC3)n2)ccc1O[C@H]1CCC[C@H](C(=O)O)C1 [Example 337]
99	Cc1nc(-c2nnn(C)c2CNc2nccc(-n3cccn3)n2)ccc1O[C@H]1CCC[C@H](C(=O)O)C1 [Example 326]
99	Cc1nc(-c2nnn(C)c2COc2cncc(C(F)(F)F)n2)ccc1O[C@H]1CCC[C@H](C(=O)O)C1 [Example 339]
96	CCOCCOc1cc(OCc2c(-c3ccc(O[C@H]4CCC[C@H](C(=O)O)C4)c(C)n3)nnn2C)ncn1 [Example 362]
81	Cn1nnc(-c2ccc(O[C@H]3CCC[C@H](C(=O)O)C3)cn2)c1COc1cc(C(F)F)ncn1 [Example 353]
77	COc1ccnc(OCc2c(-c3ccc(O[C@H]4CCC[C@H](C(=O)O)C4)c(C)n3)nnn2C)n1 [Example 346]
67	COCc1cc(OCc2c(-c3ccc(O[C@H]4CCC[C@H](C(=O)O)C4)c(C)n3)nnn2C)ncn1 [Example 299]

IC50 [nM]	Compound
66	Cc1nc(-c2nnn(C)c2COc2cc(Cl)ncn2)ccc1O[C@H]1CCC[C@H](C(=O)O)C1 [Example 304]
64	Cc1nc(-c2nnn(C)c2COc2cc(NC3CC3)ncn2)ccc1O[C@H]1CCC[C@H](C(=O)O)C1 [Example 303]
60	Cc1nc(-c2nnn(C)c2COc2ccnc(C(F)F)c2)ccc1O[C@H]1CCC[C@H](C(=O)O)C1 [Example 308]
57	Cc1nc(-c2nnn(C)c2CNc2nccc(COC(C)C)n2)ccc1O[C@H]1CCC[C@H](C(=O)O)C1 [Example 319]
44	Cc1nc(-c2nnn(C)c2CNc2nccc(COC3CC3)n2)ccc1O[C@H]1CCC[C@H](C(=O)O)C1 [Example 322]
39	Cc1nc(-c2nnn(C)c2COc2cc(-n3cccc3)ncn2)ccc1O[C@H]1CCC[C@H](C(=O)O)C1 [Example 358]
38	CCc1cc(OCc2c(-c3ccc(O[C@H]4CCC[C@H](C(=O)O)C4)cn3)nnn2C)ncn1 [Example 352]
37	Cc1nc(-c2nnn(C)c2COc2nccc(COC3CC3)n2)ccc1O[C@H]1CCC[C@H](C(=O)O)C1 [Example 321]
36	CCc1nccc(OCc2c(-c3ccc(O[C@H]4CCC[C@H](C(=O)O)C4)c(C)n3)nnn2C)n1 [Example 306]
34	COc1cc(OCc2c(-c3ccc(O[C@H]4CCC[C@H](C(=O)O)C4)cn3)nnn2C)ncn1 [Example 351]
29	Cc1nc(-c2nnn(C)c2COc2nccc(C(C)(C)C)n2)ccc1O[C@H]1CCC[C@H](C(=O)O)C1 [Example 332]
22	Cc1nc(-c2nnn(C)c2COc2cc(C(F)F)ccn2)ccc1O[C@H]1CCC[C@H](C(=O)O)C1 [Example 315]
19	Cc1nc(-c2nnn(C)c2CNc2nccc(OCC3CC3)n2)ccc1O[C@H]1CCC[C@H](C(=O)O)C1 [Example 334]
17	Cc1nc(-c2nnn(C)c2COc2nccc(C(F)F)n2)ccc1O[C@H]1CCC[C@H](C(=O)O)C1 [Example 310]
11	Cc1nc(-c2nnn(C)c2COc2nccc(C(F)(F)F)n2)ccc1O[C@H]1CCC[C@H](C(=O)O)C1 [Example 305]
9.5	Cc1nc(-c2nnn(C)c2COc2nccc(C(C)C)n2)ccc1O[C@H]1CCC[C@H](C(=O)O)C1 [Example 345]
7.9	CCc1ccnc(OCc2c(-c3ccc(O[C@H]4CCC[C@H](C(=O)O)C4)c(C)n3)nnn2C)n1 [Example 301]
